The values that follow come from paper PMC12373508, “D-cysteine impairs tumour growth by inhibiting cysteine desulfurase NFS1” (Nature Metabolism, 2025).

The target in assay [1] is NFS1 (Homo sapiens, UniProt Q9Y697, C381S). The experiment in a line: microscale thermophoresis. It counts as binding.
In assay [2] the target is T1, NFS1 (Homo sapiens, UniProt Q9Y697). The experiment in a line: reconstituted [2Fe-2S] cluster synthesis by circular dichroism; UV/Vis of Cys-ketimine formation. It counts as biochemical.
Target sequence in this assay (Q9Y697 56-457, other chains not shown): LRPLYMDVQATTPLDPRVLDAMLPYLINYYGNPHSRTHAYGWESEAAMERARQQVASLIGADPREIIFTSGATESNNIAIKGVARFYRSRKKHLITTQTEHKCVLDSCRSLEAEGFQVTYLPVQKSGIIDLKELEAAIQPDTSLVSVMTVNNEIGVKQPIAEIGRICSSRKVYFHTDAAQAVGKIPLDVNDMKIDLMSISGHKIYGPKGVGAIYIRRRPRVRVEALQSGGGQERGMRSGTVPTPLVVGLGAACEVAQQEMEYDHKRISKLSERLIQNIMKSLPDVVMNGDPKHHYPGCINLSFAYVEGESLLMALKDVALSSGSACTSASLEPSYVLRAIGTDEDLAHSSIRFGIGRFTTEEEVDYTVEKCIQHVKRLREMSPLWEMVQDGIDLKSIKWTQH
Target sequence in this assay (Q9HD34 whole entry partner, other chains not shown): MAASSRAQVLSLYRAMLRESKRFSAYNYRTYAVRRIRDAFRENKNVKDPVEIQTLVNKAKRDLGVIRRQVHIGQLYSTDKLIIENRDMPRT
Target sequence in this assay (Q16595 81-210 partner, other chains not shown): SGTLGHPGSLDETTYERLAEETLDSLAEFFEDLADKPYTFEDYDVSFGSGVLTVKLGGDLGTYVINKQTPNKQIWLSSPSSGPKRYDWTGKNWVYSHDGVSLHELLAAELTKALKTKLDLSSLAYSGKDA
Target sequence in this assay (Q9H1K1 35-167 partner, other chains not shown): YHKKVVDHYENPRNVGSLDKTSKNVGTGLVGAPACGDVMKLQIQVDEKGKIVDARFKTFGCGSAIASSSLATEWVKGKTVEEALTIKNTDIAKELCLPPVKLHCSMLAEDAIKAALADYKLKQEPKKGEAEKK
Assay [3] has as its target T1, NFS1. The experiment in a line: X-ray crystal structure after incubation with […] ligand. It counts as binding.
Target sequence in this assay (Q9Y697 56-457): as the sequence (Q9Y697 56-457, other chains not shown) above
Target sequence in this assay (Q9HD34 whole entry partner): as the sequence (Q9HD34 whole entry partner, other chains not shown) above
Target sequence in this assay (P0A6A8 2-78 partner): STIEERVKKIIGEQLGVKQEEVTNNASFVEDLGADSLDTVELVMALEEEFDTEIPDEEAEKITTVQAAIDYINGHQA
Target sequence in this assay (Q9H1K1 35-167 partner): as the sequence (Q9H1K1 35-167 partner, other chains not shown) above

NFS1 (Homo sapiens, UniProt Q9Y697, C381S), sequence (Q9HD34 whole entry, other chains not shown): as the sequence (Q9HD34 whole entry partner, other chains not shown) above
NFS1 (Homo sapiens, UniProt Q9Y697, C381S), sequence (Q9Y697 56-457 C381S, other chains not shown): as the sequence (Q9Y697 56-457, other chains not shown) above, with C326S counted along it

In the case of `N[C@H](CS)C(=O)O` [D-Cys, D-cysteine], at NFS1 [1], binding was put at a Kd of 25.6 µM. Also, the “reconstituted [2Fe-2S] cluster synthesis by circular dichroism; UV/Vis of Cys-ke” value on NFS1 [2] is “when D-Cys is present in excess, the NFS1 enzymatic activity is inhibited”.
`N[C@@H](CS)C(=O)O` [L-Cys, L-cysteine]: at NFS1 [1], the dissociation constant (Kd) is 2.15 µM.
Regarding `C#CC[C@H](N)C(=O)O` [PG, L-propargylglycine], on NFS1 [3], the “X-ray crystal structure after incubation with 1 mM ligand” value is “in the NFS1 active site, we observed an external L-propargylglycine-ketimine”.
